What was measured:
[1] = target: bafilomycin-sensitive ATPase of chicken osteoclast; assay: Inhibition of bafilomycin-sensitive ATPase activity in purified chicken osteoclast membrane vesicles (Pi release); type: biochemical; conditions: membrane source not given, chicken osteoclast assumed
Method: Preparation of Crude Bone Microsomes from Calcium-starved Egg-laying Hens
Vesicles were prepared from medullar bone obtained from tibiae and femurs or egg-laying hens which were calcium-starved for at least 15 days. Briefly, bone fragments were scraped with a 24 scalpel blade, suspended in 40 ml of isolation medium (0.2 M sucrose, 50 mM KCl, 10 mM Hepes, 1 mM EGTA, 2 mM dithiotheitrol, pH 7.4) and filtered through a 100 μm pore size nylon mesh. The whole procedure was performed at 4° C. After homogenisation in a potter (20 strokes) in 40 ml of isolation medium an initial centrifugation (6,500×gmax×20 min) was performed to remove mitochondria and lysosomes. The supernatant was centrifuged at 100,000×gmax for 1 hr and the pellet was collected in 1 ml of isolation medium, divided into 200 μl aliquots, immediately frozen in liquid nitrogen and stored at −80° C. The protein content was determined using a Biorad colourimetric kit according to Bradford [M. Bradford, Anal. Biochem., 72, 248 (1976)]. For the proton transport assay, 5-10 μl of membranes were used.
Purification of osteoclast membranes. 1 ml of crude microsomal vesicles prepared above were applied (about 0.2 ml per tube ) on the top of a sucrose step-gradient consisting of 3.5 ml of 15%, 30% and 45% (w/w) sucrose in isolation medium and centrifuged at 280,000 gmax for 2 h (SW 41 Ti rotor). After centrifugation the 30-45% sucrose interfaces were collected, diluted approx. 20-fold in isolation medium and pelletted at 100,000 gmax for 1 hour (SW 28 rotor). […]
Inhibition of bafilomycin-sensitive ATPase activity was assessed in purified membrane vesicles by measuring the release of inorganic phosphate (Pi) during 30 min of incubation at 37° C. in a 96-well plate either in the presence or in the absence of bafilomycin A1. […] Absorbance at 650 nm was measured after 2 min using a microplate reader. Results are expressed as nmol (Pi)×mg protein^−1×min^−1 and, for each experiment, represent the mean±sem of triplicates.

[2] = target: bafilomycin-sensitive ATPase in human kidney membranes; assay: Inhibition of bafilomycin-sensitive ATPase in human kidney membranes; type: biochemical; conditions: read-out: IC50 h kidney
Method: Human kidney membranes were obtained from the cortex of a human kidney, frozen immediately after surgery, according to the method reported in the literature for bovine kidney (S. Gluck, J Biol. Chem., 265, 21957 (1990)).
Inhibition of bafilomycin-sensitive ATPase activity was assessed in purified membrane vesicles by measuring the release of inorganic phosphate (Pi) during 30 min of incubation at 37° C. in a 96-well plate either in the presence or in the absence of bafilomycin A1. The reaction medium contained 1 mM ATP, 10 mM HEPES-Tris pH 8, 50 mM KCl, 5 uM valinomycin, 5 uM nigericin, 1 mM CDTA-Tris,100 uM ammonium molybdate, 0.2 M sucrose and membranes (20 ug protein/ml). The reaction was initiated by MgSO4 (8-arm pipette) and stopped, after 30 min, by addition of 4 volumes of the malachite green reagent (96-arm pipette) prepared according to Chan [Anal. Biochem. 157, 375 (1986)]. Absorbance at 650 nm was measured after 2 min using a microplate reader. Results are expressed as nmol (Pi)×mg protein^−1×min^−1 and, for each experiment, represent the mean±sem of triplicates.

| Compound | IC50 [1] [µM] | IC50 [2] [nM] | melting point [°C] |
| --- | --- | --- | --- |
| CN1C(C)(C)CC(NC(=O)c2ccc(-c3cc4cc(Cl)c(Cl)cc4[nH]3)cc2)CC1(C)C [Example 1, 4-(5,6-Dichloro-1H-indol-2-yl)-N-(1,2,2,6,6-pentamethypiperidin-4-yl)benzamide] | 0.35 | 1250 |  |
| CN(C)CCCNC(=O)c1cccc(-c2cc3cc(Cl)c(Cl)cc3[nH]2)c1 [Example 5, 3-(5,6-Dichloro-1H-indol-2-yl)-N-(3-dimethylaminopropyl)benzamide] |  |  | 204 |
| COc1cc(C(=O)NC2CC(C)(C)N(C)C(C)(C)C2)ccc1-c1cc2cc(Cl)c(Cl)cc2[nH]1 [Example 2, 4-(5,6-Dichloro-1H-indol-2-yl)-3-methoxy-N-(1,2,2,6,6-pentamethylpiperidin-4yl)-benzamide] | 0.096 | 200 |  |
| COc1cc(-c2cc3cc(Cl)c(Cl)cc3[nH]2)ccc1C(=O)NC1CC(C)(C)N(C)C(C)(C)C1 [Example 3, 4-(5,6-Dichloro-1H-indol-2-yl)-2-methoxy-N-(1,2,2,6,6-pentamethylpiperidin-4-yl)-benzamide] | 1.3 |  |  |

From patent publication US6506758B2, “Indole derivatives useful A.O. for the treatment of osteoporosis” (SmithKline Beecham Laboratoires Pharmceutiques, priority 1997, dated 2003)
